Source: US12595231B2 (priority 2022, dated 2026)
≈ marks a conversion by molar mass, not a printed value. Read-outs that look alike come from different tables or passages of the source.

Key:
[1] = primary salt formation assessment: solution degradation (HPLC of mother liquor); type: physicochemical; settings: salt formation experiment
Protocol: HPLC analysis was carried out to determine the chemical purity of the mesembrine and to provide information on any impurities. The following conditions were use: • Column: Waters Acquity BEH 018 1.7 μm 150 mm×2.1 mm • Column Temperature: 33° C. • Autosampler Temperature: 25° C. • UV Wavelength: 280 nm • Injection Volume: 5 μL • Flow Rate: 0.29 mL/min • Mobile Phase A: 0.1% NH4 in H2O • Mobile Phase B: Methanol:Water 20:80% v/v • Gradient Program: […]
The experiments were then temperature cycled between the upper temperature limit (specified in Table 3.1) and 5° C. at 0.1° C./min, with 1 h holds at the upper temperature limit, and 5° C. for ca. 72 h.
After temperature cycling, solids were isolated from experiments at 5° C., and analysed by XRPD.

[2] = DVS analysis (water uptake); type: physicochemical; settings: 80% RH, 25° C.; listed as fumarate salt Pattern 4
1-week stability study = type: physicochemical; settings: for Observation: Sigma Aldrich colour chart
Protocol: A 1-week stability study was performed for hydrochloride salt Pattern 1, besylate salt Pattern 1, fumarate salt Pattern 1+4, and fumarate salt Pattern 4.
Approximately 5 mg of the salt was weighed into 3×2 mL push cap vials. The 2 mL vials were then each placed inside a 20 mL vial, with the lids on or off as required. The solids were placed under the required stability conditions for 1 week at the following three conditions: 40° C./75% RH (open); 80° C. (closed); Ambient light, temperature and humidity (open)
After 1-week, visual observations were noted, then the solids were analysed by XRPD and HPLC.

[3] = solubility screen of amorphous besylate salt; type: physicochemical
Protocol: The amorphous besylate salt prepared in Example 8 was used in a solubility screen as follows:
Known volume aliquots of solvent system were added to each vial, with heating at 40° C. between each addition for ca. 5 minutes. Addition of solvents was continued until either dissolution was observed, or until 100 volumes (ca. 1 mL) had been added.
After the solvent addition was complete, the experiments were stirred at 40° C. for ca. 16 h. […] The solids were isolated by centrifuge filtration and were analysed by XRPD.
Any solids isolated were analysed by XRPD.

[4] = blood:plasma and blood:brain ratios in satellite animals; type: in vivo, male C57Bl/6J mice; settings: satellite mice, 10 mg/kg i.p., t=0.25 h
Protocol: Groups of 18 male C57Bl/6J mice (weighing between 20 and 30 g) received a single administration of test compound (10 mg/kg; i.p.) in methylcellulose (0.5% w/v) at a nominal concentration of […].

[5] = male C57Bl/6J mice, 10 mg/kg i.p.
[6] = primary salt formation assessment: storage at 40° C./75% RH for ca. 24 h, XRPD; type: physicochemical; settings: solids stored at 40° C./75% RH for ca. 24 h
Protocol: Solids were dried at 40° C. under vacuum for ca. 24 h, and then re-analysed by XRPD.
Solids were then stored at 40° C./75% RH for ca. 24 h, and then re-analysed by XRPD.

[7] = solvent miscibility/solubility of mesembrine (Example 2); type: physicochemical
Protocol: After dissolution 278 μL of the solution was aliquoted into pre-tared vials, and the solvent allowed to evaporate at ambient conditions for 1 h. The vials were then dried at 20° C. under vacuum for ca. 22 h. After drying, the vials were back-weighed to determine the mass of mesembrine in each vial.
The miscibility study was carried out by adding aliquots of the desired solvent system to each vial. The following aliquot sizes were used: Aliquot numbers 1-10-20 μL; 11-16-50 μL; 17-19-200 μL; 20-750 μL.
In between additions the experiment was heated to 40° C. for ca. 5 minutes to facilitate miscibility/solubility. Additions were continued until miscibility was observed, or ca. 100 volumes (2 mL) had been added.

[8] = cited from earlier work
[9] = type: physicochemical
Protocol: Approximately 20 mg of each salt was weighed into 3×2 mL push cap vials. 0.1 mL of buffer (Chloride pH 1.2; Acetate pH 4.5; Phosphate pH 6.8) was added to each vial, at 25° C. The experiment was stirred for ca. 24 h. After 2 h, the pH was measured and adjusted if required. After 24 h a final pH measurement was taken. Any slurries were centrifuged and the solids analysed by XRPD.

[10] = Ambient light, temperature and humidity, 1 week

COc1ccc(C23CCC(=O)CC2N(C)CC3)cc1OC.O=P(O)(O)O (stereo not shown) [Phosphate Pattern 1, mesembrine phosphate]
solution degradation (Comments) [1]: degradation

COc1ccc(C23CCC(=O)CC2N(C)CC3)cc1OC.O=C(O)C=CC(=O)O (stereo not shown) [Fumarate Pattern 4, mesembrine fumarate]
DVS water uptake [2]: 0.5 wt %
HPLC (1-week stability study; 40° C./75% RH (open), 1 week): 96.4 % area
XRPD (pattern number) (1-week stability study; 40° C./75% RH (open), 1 week): 4,
Observation (1-week stability study; 40° C./75% RH (open), 1 week): Faint beige solids (BE10)
HPLC (1-week stability study; 80° C. (closed), 1 week): 96.4 % area
XRPD (pattern number) (1-week stability study; 80° C. (closed), 1 week): 4,
Observation (1-week stability study; 80° C. (closed), 1 week): Faint beige solids (BE10)
HPLC (1-week stability study; [10]): 96.4 % area
XRPD (pattern number) (1-week stability study; [10]): 4,
Observation (1-week stability study; [10]): Faint beige solids (BE10)
HPLC (1-week stability study; Input): 95.9 % area
XRPD (pattern number) (1-week stability study; Input): 4,

COc1ccc(C23CCC(=O)CC2N(C)CC3)cc1OC.O=S(=O)(O)c1ccccc1 (stereo not shown) [amorphous besylate salt, mesembrine besylate]
Solubility ([3]; 1,4-Dioxane): <10000 µg/mL
Solubility ([3]; 1-Butanol): <10000 µg/mL
Solubility ([3]; 1-Propanol): ca.31 mg/mL
Solubility ([3]; 2-Ethoxyethanol): ca.44 mg/mL
Solubility ([3]; 2-Methyl THF): <10000 µg/mL
Solubility ([3]; 2-Propanol): <10000 µg/mL
Solubility ([3]; 2-Propanol:Water (50:50)): >500000 µg/mL
Solubility ([3]; 2-Propanol:Water (75:25)): ca.167 mg/mL
Solubility ([3]; Acetone): <10000 µg/mL
Solubility ([3]; Acetone:Water (90:10)): >500000 µg/mL
Solubility ([3]; Acetonitrile): >500000 µg/mL
Solubility ([3]; Anisole): <10000 µg/mL
Solubility ([3]; Butyl Acetate): <10000 µg/mL
Solubility ([3]; Dichloromethane (DCM)): ca.250 mg/mL
Solubility ([3]; Diisopropyl ether): <10000 µg/mL
Solubility ([3]; Dimethylsulfoxide (DMSO)): >500000 µg/mL
Solubility ([3]; Ethanol): ca.44 mg/mL
Solubility ([3]; Ethanol:Water (50:50)): >500000 µg/mL
Solubility ([3]; Ethanol:Water (90:10)): >500000 µg/mL
Solubility ([3]; Ethyl acetate): <10000 µg/mL
Solubility ([3]; Heptane): <10000 µg/mL
Solubility ([3]; Isopropyl acetate): <10000 µg/mL
Solubility ([3]; Methanol): >500000 µg/mL
Solubility ([3]; Methylethyl Ketone (MEK)): <10000 µg/mL
Solubility ([3]; Methylisobutyl Ketone (MiBK)): <10000 µg/mL
Solubility ([3]; N,N-Dimethylacetamide (DMA)): >500000 µg/mL
Solubility ([3]; N,N-Dimethylformamide (DMF)): ca.250 mg/mL
Solubility ([3]; N-Methylpyrrolidone (NMP)): >500000 µg/mL
Solubility ([3]; Tetrahydrofuran (THF)): <10000 µg/mL
Solubility ([3]; Toluene): <10000 µg/mL
Solubility ([3]; Water): >500000 µg/mL
Solubility ([3]; tert-Butylmethyl Ether (tBME)): <10000 µg/mL
Brain concentration [4]: 814 ng/g
Plasma concentration [4]: 417 ng/mL
AUC greater than that produced by the mesembrine free base [5]: over 100 ng·hr/mL
difference in half-life versus the free base [5]: ~10 min
AUC0-inf ([5]; plasma): 392 ng·h/mL
Cmax ([5]; plasma): 451 ng/mL
Tmax ([5]; plasma): 15 min
half-life ([5]; plasma): 36.9 min

COc1ccc(C23CCC(=O)CC2N(C)CC3)cc1OC.O=C(O)CCC(=O)O (stereo not shown) [Succinate Pattern 1, mesembrine succinate]
solution degradation (Comments) [1]: degradation

COc1ccc(C23CCC(=O)CC2N(C)CC3)cc1OC.O=C(O)C(O)C(O)C(=O)O (stereo not shown) [Tartrate Pattern 1, mesembrine tartrate]
physical stability at 40° C./75% RH (Comments) [6]: Deliquescence
solution degradation (Comments) [1]: degradation

COc1ccc(C23CCC(=O)CC2N(C)CC3)cc1OC.O=C(O)/C=C/C(=O)O (stereo not shown) [Fumarate Pattern 2, mesembrine fumarate]
solution degradation (Comments) [1]: degradation

COc1ccc(C23CCC(=O)CC2N(C)CC3)cc1OC (stereo not shown) [mesembrine, 3a-(3,4-dimethoxyphenyl)-octahydro-1-methy-6H-indol-6-one]
Miscibility ([7]; 1,4-Dioxane): >850 mg/mL
Miscibility ([7]; 2-Methyl THF): >845 mg/mL
Miscibility ([7]; 2-Propanol (IPA)): >870 mg/mL
Miscibility ([7]; 2-Propanol:Water (50:50)): >870 mg/mL
Miscibility ([7]; Acetone): >890 mg/mL
Miscibility ([7]; Acetonitrile): >855 mg/mL
Miscibility ([7]; DMSO): >288 mg/mL
Miscibility ([7]; Ethanol): >630 mg/mL
Miscibility ([7]; Ethyl acetate): >445 mg/mL
Miscibility ([7]; Heptane): <9 mg/mL
Miscibility ([7]; Isopropyl acetate): >900 mg/mL
Miscibility ([7]; Methanol): >455 mg/mL
Miscibility ([7]; Methylethyl Ketone (MEK)): >915 mg/mL
Miscibility ([7]; N-Methyl-2-pyrrolidone (NMP)): >450 mg/mL
Miscibility ([7]; Tert-butyl methyl ether): >465 mg/mL
Miscibility ([7]; Tetrahydrofuran (THF)): >381 mg/mL
Miscibility ([7]; Toluene): >455 mg/mL
Miscibility ([7]; Water): <9 mg/mL
Brain concentration [4]: 1292 ng/g
Plasma concentration [4]: 317 ng/mL
Solubility ([8]; Ethanol): 10000 µg/mL (≈ 34.6 mM)
Solubility ([8]; Water): low solubility
Solubility ([8]; chloroform): 10000 µg/mL (≈ 34.6 mM)
AUC0-inf ([5]; plasma): 290 ng·h/mL
Cmax ([5]; plasma): 400 ng/mL
Tmax ([5]; plasma): 15 min
half-life ([5]; plasma): 27.2 min
t1/2 ([5]; plasma): 27.2 min

COc1ccc(C23CCC(=O)CC2N(C)CC3)cc1OC.O=C(O)/C=C/C(=O)O (stereo not shown) [Fumarate Pattern 1, mesembrine fumarate]
physical stability at 40° C./75% RH (Comments) [6]: Physically stable
HPLC Conc. ([9]; Target pH 1.2 (chloride buffer), 25° C., 24 h, with respect to mesembrine): 29.44 mg/mL
Observation ([9]; Target pH 6.8, ca. 20 mg in 0.1 mL buffer): Oiling
